Measured values published in patent publication US10124009B2, “Bromodomain inhibitors” (Tensha Therapeutics, Inc., priority 2014, dated 2018).

Assays:
[1] = target: BRD4(1) (Homo sapiens (Human), UniProt O60885); test: BROMOscan binding assay BRD4(1)
Protocol: (§1) (S)-JQ (S8) was used as a positive control.
(§2) T7 phage strains displaying bromodomains were grown in parallel in 24-well blocks in an E. coli host derived from the BL21 strain. E. coli were grown to log-phase and infected with T7 phage from a frozen stock (multiplicity of infection=0.4) and incubated with shaking at 32° C. until lysis (90-150 minutes). The lysates were centrifuged (5,000×g) and filtered (0.2 μm) to remove cell debris. […] The liganded beads were blocked with excess biotin and washed with blocking buffer (SeaBlock (Pierce), 1% BSA, 0.05% Tween 20, 1 mM DTT) to remove unbound ligand and to reduce non-specific phage binding.
(§3) Test compounds were prepared as 1000× stocks in 100% DMSO and subsequently serially diluted 1:10 in monoethylene glycol (MEG) to create stocks at 100× the screening concentration (resulting stock solution is 10% DMSO/90% MEG). The compounds were then diluted directly into the assays such that the final concentration of DMSO and MEG were 0.1% and 0.9%, respectively. All reactions were performed in polystyrene 96-well plates in a final volume of 0.135 ml. […] The bromodomain concentration in the eluates was measured by qPCR.
(§4) Most Kds were determined using a compound top concentration=10,000 nM.
(§5) Binding constants (Kds) were calculated with a standard dose-response curve using the Hill equation. The Hill Slope was set to −1. Curves were fitted using a non-linear least square fit with the Levenberg-Marquardt algorithm. […] The amount of bromodomain was measured by qPCR (y-axis) and was plotted against the corresponding compound concentration in nM in log 10 scale.

[2] = target: BRD4(2) (Homo sapiens (Human), UniProt O60885); test: BROMOscan binding assay BRD4(2)
Protocol: as §1, §2, §3, §4, §5

[3] = Caco-2 permeability assay; settings: human; for recovery at 2 h, 10 μM: Caco-2; for Papp A→B at 2 h, 10 μM: Caco-2, Mean Papp, Assay Conc. 10 μM
[4] = IV and oral pharmacokinetics in male Sprague-Dawley rats; assay type: in vivo, rat; settings: for exposures following IV administration: IV 1 mg/kg; for Extrapolated / AUC(0-inf) / AUC(0-t) / Cmax / Tmax / half-life: rat plasma; for bioavailability / AUC(0-inf) / AUC(0-t) / Cmax / Tmax / half-life: male, Sprague-Dawley; for bioavailability: rat, plasma, PO 5 mg/kg, read-out: oral bioavailability F
Protocol: Male Sprague-Dawley (˜250-325 g) with indwelling jugular vein cannulae (JVC) were purchased and allowed to acclimate to the test facility for a minimum of 2 days. All animals were fasted overnight prior to dosing. Oral formulations were prepared by weighing the appropriate amount of the compound into formulation vial and adding the appropriate volume of DMSO (10%), Solutol HS-15 (10%), and saline (80%) (See Table 0 for compound amounts and concentrations of all formulations). Once the test compound was in the vial, DMSO was added and the vial was vortexed for 1-2 minutes and sonicated for 3 minutes. The appropriate volume of Solutol HS-15 was then added to formulation vial and the vial was vortexed for 1-2 minutes and sonicated for 2 minutes. Saline was added and the pH adjusted to about 6.8-7.4, and the vial was vortexed for 2 minutes.
Oral dosing was performed using a ball-tipped gavage needle. […] No abnormalities were observed during the course of the study. Serial samples were collected by via tail snip, or facial vein. Blood samples were collected into NaF Na2EDTA tubes and stored on wet ice until processed to plasma by centrifugation (3500 rpm for 10 minutes at 5° C.) within 30 minutes of collection. Plasma samples were transferred into matrix tubes and stored at −80° C. until transferred to analytical chemistry for analysis. The cellular fraction was discarded. Dose formulation and plasma samples were analyzed for parent drug and metabolite by Agilux Laboratories via LC/MS/MS using an RGA I assay.

[5] = test system: Caco-2; test: Caco-2 permeability assay; settings: Assay Conc. 10 μM
[6] = in vitro; settings: human
[7] = test system: RIN-m; test: Cell Titer-Glo rat insulinoma cell assay, RIN-m; assay type: cell-based; settings: cell proliferation, 168-192 h culture
Protocol: (§6) A Cell Titer-Glo assay was utilized to test the sensitivity of four rat insulinoma (RIN) cell lines, RIN-14B, RIN-m5F, RIN-m, and RIN-5, to Compound 1 and Compound 2.
(§7) Cells were seeded at 5000 cells per well in a 96-well microculture plate in a total volume of 100 μl/well and incubated for 24 hours. 100 μl of 2× testing compounds (Compound 1 or Compound 2), serially diluted 1:4 were added to each well. The concentrations tested for Compound 1 and Compound 2 were 20 μM, 5 μM, 1.25 μM, 0.313 μM, 0.0781 μM, 0.0195 μM, 0.00488 μM, 0.00122 μM, 0.000305 μM, and 0.0000763 μM. After 168-192 total hours of culture 100 μl of media was removed from each well and 50 μl of Cell Titer-Glo (Promega #G7571) was added to each well. The plate was shaken for 2 minutes and allowed to equilibrate for 10 minutes. Luminescence was measured on a Tecan GENios microplate reader. Percent inhibition of cell proliferation was calculated relative to untreated control wells. All tests were performed in triplicate or quadruplicates at each concentration level. IC50 values were calculated using Prism 6.00 curve-fitting with a four parameter-logistic equation.

[8] = test system: RIN-m5F; test: Cell Titer-Glo rat insulinoma cell assay, RIN-m5F; assay type: cell-based; settings: cell proliferation, 168-192 h culture
Protocol: as §6, §7

[9] = test system: RIN-5F; test: Cell Titer-Glo rat insulinoma cell assay, RIN-5F; assay type: cell-based; settings: cell proliferation, 168-192 h culture
Protocol: as §6, §7

[10] = test system: rat insulinoma (RIN) cell lines; test: Cell Titer-Glo rat insulinoma cell assay, all four cell lines; assay type: cell-based; settings: all cell lines (RIN-14B, RIN-m5F, RIN-m, RIN-5)
Protocol: as §6, §7

[11] = test system: RIN-14B; test: Cell Titer-Glo rat insulinoma cell assay, RIN-14B; assay type: cell-based; settings: cell proliferation, 168-192 h culture
Protocol: as §6, §7

[12] = PO Dose (5 mg/kg) vs IV (1 mg/kg)

SMILES	Kd [1] [nM]	Kd values / in vitro binding activity to BRD4(1), in words [1]	Kd [2] [nM]	Kd values / in vitro binding activity to BRD4(2), in words [2]	recovery at 2 h, 10 μM [3] [%]	Papp A→B at 2 h, 10 μM [3] [×10⁻⁶ cm/s]	exposures following IV administration [4]	Extrapolated ([4]; IV Dose (1 mg/kg)) [%]	bioavailability [4] [%]	AUC(0-inf) ([4]; IV Dose (1 mg/kg)) [ng·h/mL]	AUC(0-t) ([4]; IV Dose (1 mg/kg)) [ng·h/mL]	Cmax ([4]; IV Dose (1 mg/kg)) [ng/mL]	Tmax ([4]; IV Dose (1 mg/kg)) [min]	half-life ([4]; IV Dose (1 mg/kg)) [min]	AUC(0-t) ([4]; PO Dose (5 mg/kg)) [ng·h/mL]	Cmax ([4]; PO Dose (5 mg/kg)) [ng/mL]	Tmax ([4]; PO Dose (5 mg/kg)) [min]	other results
Cc1sc2c(c1C)C(c1ccc(Cl)cc1)=N[C@@H](CC(=O)OC/C(Br)=C(\Br)CO)c1nnc(C)n1-2 [Compound 7]	1.5	low Kd values	2.1	low Kd values	76.9	31.3	–	–	–	–	–	–	–	–	–	–	–	–
Cc1sc2c(c1C)C(c1ccc(Cl)cc1)=N[C@@H](CC(=O)OCCO)c1nnc(C)n1-2 [Compound 3]	1.1	low Kd values	1.2	low Kd values	88.7	29.8	–	–	–	–	–	–	–	–	–	–	–	–
Cc1sc2c(c1C)C(c1ccc(Cl)cc1)=N[C@@H](CC(=O)OC(C)(C)C)c1nnc(C)n1-2 [(S)-JQ1, reference compound]	–	–	–	–	84.6	35.4	–	–	–	–	–	–	–	–	–	–	–	–
Cc1sc2c(c1C)C(c1ccc(Cl)cc1)=N[C@@H](CC(=O)OCCCO)c1nnc(C)n1-2 [Compound 4]	1.1	low Kd values	1.3	low Kd values	99.4	35.6	detected	0.28	> 23	784	782	1130	4.98	48.4	813	480	30	F [4, 12]: 23.4%; AUC(0-inf) ([4]; PO Dose (5 mg/kg)): 918 ng·h/mL; half-life ([4]; PO Dose (5 mg/kg)): 110 min
CNC(=C[N+](=O)[O-])NCCSCc1ccc(CN(C)C)o1 [Ranitidine, reference compound]	–	–	–	–	–	–	–	–	–	–	–	–	–	–	–	–	–	Mean % recovery [5]: 97.8%; Mean Papp, A-B ([5]; 2 hours): 0.170 10^−6 cm/s
CC(=O)CC(c1ccccc1)c1c(O)c2ccccc2oc1=O (stereo not shown) [Warfarin]	–	–	–	–	–	–	–	–	–	–	–	–	–	–	–	–	–	recovery at 2 h, 10 μM ([6]; Caco-2): 99.9%; Papp A→B at 2 h, 10 μM ([6]; Caco-2, Mean Papp, A-B): 38.8 ×10⁻⁶ cm/s
Cc1sc2c(c1C)C(c1ccc(Cl)cc1)=N[C@@H](CC(=O)OCC(C)O)c1nnc(C)n1-2 (stereo partly shown) [Compound 2]	1.9	low Kd values	1.9	low Kd values	95.3	30.6	detected	4.62	> 23	–	–	790	4.98	27.4	2720	820	60	IC50 [7]: 41.5 nM; IC50 [8]: 42.3 nM; F [4, 12]: 102.2%; AUC(0-inf) ([4]; PO Dose (5 mg/kg)): 3030 ng·h/mL; half-life ([4]; PO Dose (5 mg/kg)): 107 min; IC50 ([9]; Rattus norvegicus): 64.5 nM; IC50 [9]: 59.9 nM; IC50 [10]: < 80 nM; IC50 [11]: 26.5 nM
Cc1sc2c(c1C)C(c1ccc(Cl)cc1)=N[C@@H](CC(=O)OCC(O)CO)c1nnc(C)n1-2 (stereo partly shown) [Compound 6]	–	–	–	–	90.8	4.74	–	–	–	–	–	–	–	–	–	–	–	–
Cc1sc2c(c1C)C(c1ccc(Cl)cc1)=N[C@@H](CC(=O)OC1CCC(O)CC1)c1nnc(C)n1-2 (stereo partly shown) [Compound 1]	1.3	low Kd values	1.5	low Kd values	98.5	30.7	detected	0.41	> 23	1500	1500	1490	4.98	47.9	2360	619	60	IC50 [7]: 12.6 nM; IC50 [8]: 11.3 nM; F* ([4]; PO Dose (5 mg/kg) vs IV (1 mg/kg), AUC0-last was used to calculate % F): 31.6%; IC50 ([9]; Rattus norvegicus): 21.6 nM; IC50 [9]: 19.5 nM; IC50 [10]: < 40 nM; IC50 [11]: 9.3 nM
Cc1sc2c(c1C)C(c1ccc(Cl)cc1)=N[C@@H](CC(=O)OCCCCCCO)c1nnc(C)n1-2 [Compound 5]	–	low Kd values	0.4	low Kd values	88.7	39.9	detected	0.75	–	516	512	1070	4.98	18.1	12.1	12.2	30	–
